In US20200087314A1, “HISTONE DEACETYLASE INHIBITORS” (BIOMARIN PHARMACEUTICAL INC., priority 2016, published 2020):
Counter-ions that a name gives are not always drawn.

tested on: Frataxin (FXN) mRNA expression; test: Effect of HDAC inhibitors on frataxin (FXN) mRNA expression in iPSC derived neuronal cells (qRT-PCR); assay type: cell-based; settings: iPSC derived neuronal cells differentiated 16 days, compound incubated 24 h
Procedure: Effect of HDAC Inhibitors on Frataxin (FXN) mRNA Expression
Method: mRNA quantification of compound-treated iPSC derived neuronal cells Neuronal stem cells were cultured in Neurobasal A medium (Life technologies #10888022) supplemented with N2, B27 (Life technologies #17502-048 and #17504-044), L-glutamine (Life technologies #25030081), supplemented with 20 ng/ml EGF (R&D Systems #236-EG) and 20 ng/ml bFGF (BioPioneer # HRP-0011). Neuronal differentiation was initiated by removing growth factors and culturing cells in Neurobasal A with N2 and B27. Cells were allowed to differentiate for 16 days. HDAC inhibitory compound was then added and incubate for 24 h. RNA isolation was performed using the RNeasy Plus mini kit (QIAgen #74134) using a QIAcube instrument per manufacturer's instructions. qRT-PCR was performed using qScript One-Step SYBR Green qRT-PCR Kit (Quanta Biosciences 170-8893BR) with the following conditions: 20 minutes at 50° C., 5 minutes at 95° C., and then 40 cycles of 20 seconds at 95° C., 20 seconds at 55° C., 30 seconds at 72° C. The primer sequences to detect expression of FXN were: 5′-[…]-3′ and 5′-[…]-3′.
Data for additional compounds for iPSC fold inductions and cLogP are shown in Table 4 The ranges reported for cLogP refer to the following. A<1, 1<B<2, 2<C<3, 3<D<5, E>5. NA refers to “not available.”

Point of comparison: `Cl.Cl.Cl.Nc1ccccc1NC(=O)c1ccc(CN2CCN(CC3CC3)CC2)cc1` [Compound 147, N-(2-aminophenyl)-4-((4-(cyclopropylmethyl)piperazin-1-yl)methyl)benzamide], “Fold Induction” value 1.8. Against it:
- Nc1ccccc1NC(=O)c1ccc(CN2CCCN(CC3CC3)CC2)cc1 [Compound 485, N-(2-aminophenyl)-4-((4-(cyclopropylmethyl)-1,4-diazepan-1-yl)methyl) benzamide trihydrochloride] — higher, 2.2
- CC1(C)CCN(Cc2ccc(C(=O)Nc3ccccc3N)cc2)CC1.Cl.Cl [Compound 172, N-(2-aminophenyl)-4-((4,4-dimethylpiperidin-1-yl)methyl)benzamide] — lower, 1.4
- CC(C)(O)CN1CCCC(Cc2ccc(C(=O)Nc3ccccc3N)cc2)CC1.Cl.Cl (stereo not drawn) [Compound 379, N-(2-aminophenyl)-4-((1-(2-hydroxy-2-methylpropyl)azepan-4-yl)methyl)benzamide dihydrochloride] — higher, 2.1
- C[C@@H]1CN(Cc2ccc(C(=O)Nc3ccccc3N)cc2)CCN1CC(C)(C)O [Compound 480, (R)-N-(2-aminophenyl)-4-((4-(2-hydroxy-2-methylpropyl)-3-methylpiperazin-1-yl)methyl)benzamide] — higher, 2.0
- Nc1ccccc1NC(=O)c1ccc(CN2CCC3(CC2)COC3)cc1 [Compound 175, 4-((2-oxa-7-azaspiro[3.5]nonan-7-yl)methyl)-N-(2-aminophenyl)benzamide] — lower, 1.5
- CC(C)(O)CN1CCCN(Cc2ccc(C(=O)Nc3ccccc3N)cc2)CC1 [Compound 486, N-(2-aminophenyl)-4-((4-(2-hydroxy-2-methylpropyl)-1,4-diazepan-1-yl)methyl) benzamide] — higher, 1.9
- C[C@@H]1CN(CC(C)(C)O)C[C@H](C)N1Cc1ccc(C(=O)Nc2ccccc2N)cc1 [Compound 490, N-(2-aminophenyl)-4-(((2R,6S)-4-(2-hydroxy-2-methylpropyl)-2,6-dimethylpiperazin-1-yl)methyl)benzamide] — lower, 1.4
- C[C@H]1CN(CC2CC2)CCN1Cc1ccc(C(=O)Nc2ccccc2N)cc1 [Compound 481, (S)-N-(2-aminophenyl)-4-((4-(cyclopropylmethyl)-2-methylpiperazin-1-yl)methyl)benzamide] — lower, 1.6
- C[C@@H]1CN(CC2CC2)C[C@H](C)N1Cc1ccc(C(=O)Nc2ccccc2N)cc1 [Compound 489, N-(2-aminophenyl)-4-(((2R,6S)-4-(cyclopropylmethyl)-2,6-dimethylpiperazin-1-yl)methyl)benzamide] — lower, 1.5
- C[C@@H]1CN(Cc2ccc(C(=O)Nc3ccccc3N)cc2)[C@@H](C)CN1CC(C)(C)O (racemic) [Compound 478, N-(2-aminophenyl)-4-(((2S,5R)-4-(2-hydroxy-2-methylpropyl)-2,5-dimethylpiperazin-1-yl)methyl)benzamide] — higher, 2.1
- Nc1cc(F)ccc1NC(=O)c1ccc(CC2CN(CC3CC3)C2)cc1 [Compound 169, N-(2-amino-4-fluorophenyl)-4-((1-(cyclopropylmethyl)azetidin-3-yl)methyl)benzamide] — lower, 1.3
- CC(C)(O)CN1CCN(Cc2ccc(C(=O)Nc3ccccc3N)cc2)CC1(C)C [Compound 484, N-(2-aminophenyl)-4-((4-(2-hydroxy-2-methylpropyl)-3,3-dimethylpiperazin-1-yl)methyl)benzamide] — lower, 1.6
- C[C@@H]1CN(Cc2ccc(C(=O)Nc3ccccc3N)cc2)[C@@H](C)CN1CC1CC1 (racemic) [Compound 477, N-(2-aminophenyl)-4-(((2S,5R)-4-(cyclopropylmethyl)-2,5-dimethylpiperazin-1-yl)methyl)benzamide] — the same, 1.8
- CC(C)(C)CN1CCC(Cc2ccc(C(=O)Nc3ccc(F)cc3N)cc2)CC1 [Compound 162, N-(2-amino-4-fluorophenyl)-4-((1-neopentylpiperidin-4-yl)methyl)benzamide] — lower, 1.3
- Nc1cc(F)ccc1NC(=O)c1ccc(CC2CCN(CC3CC3)CC2)cc1 [Compound 163, N-(2-amino-4-fluorophenyl)-4-((1-(cyclopropylmethyl)piperidin-4-yl)methyl)benzamide] — lower, 1.2
- Nc1ccccc1NC(=O)c1ccc(CC2CCN(CC3CC3)C2)cc1 (stereo not drawn) [Compound 555, N-(2-aminophenyl)-4-((1-(cyclopropylmethyl)pyrrolidin-3-yl)methyl)benzamide] — lower, 1.11
- C[C@@H]1CN(Cc2ccc(C(=O)Nc3ccccc3N)cc2)CCN1CC1CC1 [Compound 479, (R)-N-(2-aminophenyl)-4-((4-(cyclopropylmethyl)-3-methylpiperazin-1-yl)methyl)benzamide] — higher, 2.2
- CC(C)=CC1CCN(Cc2ccc(C(=O)Nc3ccccc3N)cc2)CC1 [Compound 472, N-(2-aminophenyl)-4-((4-(2-methylprop-1-en-1-yl)piperidin-1-yl)methyl)benzamide] — lower, 1.5
- CC(C)(O)CN1CCN(Cc2ccc(C(=O)Nc3ccccc3N)cc2)CC1.Cl.Cl.Cl [Compound 146, N-(2-aminophenyl)-4-((4-(2-hydroxy-2-methylpropyl)piperazin-1-yl)methyl)benzamide] — the same, 1.8
- Nc1ccccc1NC(=O)c1ccc(CN2CC3(C2)CN(CC2CC2)C3)cc1 [Compound 238, N-(2-aminophenyl)-4-((6-(cyclopropylmethyl)-2,6-diazaspiro[3.3]heptan-2-yl)methyl)benzamide] — lower, 1.5
